The text below walks through data of patent publication US20250145600A1, “2-((4-((S)-2-(4-CHLORO-2-FLUOROPHENYL)-2-METHYLBENZO[D][1,3]DIOXOL-4-YL)PIPERIDIN-1-YL)METHYL)-1-(((S)-OXETAN-2-YL)METHYL)-1H-IMIDAZOLE DERIVATIVES AS ACTIVATORS OF THE GLP1 RECEPTOR FOR THE TREATMENT OF OBESITY” (Novartis AG, priority 2022, published 2025).

For this assay, the target named is human GLP1R (hGLP1R) (Homo sapiens, UniProt P43220). Description: Human GLP1R β-arrestin recruitment assay (PathHunter). Also on record: insert synthesized by GeneArt 93-0164 (CHO-K1-EA parental cells); 93-0491 (pCMV PK vector bundle). The assay is classed as cell-based. The conditions noted are these: CHO-hGLP1R-β-arrestin cells; for EC50: 2 h at 37° C., top concentration 30 μM, read-out: Beta-Arrestin assay EC50 Mean; for Emax: relative to GLP1(7-36), read-out: Beta-Arrestin assay Emax (%). How it is done:
Compounds of formula (I) according to the invention were tested in the following cellular assays that measure the intracellular cAMP concentration, beta-arrestin recruitment and receptor internalization. The cAMP is generated by the activation of GLP1R. The extent to which the GLP1R is internalized into the cell and away from the plasma membrane following activation is also shown in Table 2. EC50 for each assay is defined as the concentration of the compound that leads to half of the maximum response (after baseline correction). Emax is defined as the maximum response observed for the test compound, normalized to the maximum response observed for the endogenous ligand (GLP1(7-36)) to GLP1R.
Human GLP1R β-Arrestin Recruitment Assay
The extent to which agonists recruited β-arrestin was measured using the PathHunter® β-arrestin assay (DiscoverX). This assay measures binding of β-arrestin to the receptor using an enzyme complementation approach. […] When β-arrestin is recruited to the receptor the enzyme becomes active and generates luminescence in the presence of a chemiluminescent substrate (PathHunter® Detection Kit, DiscoverX cat #93-0001). Luminescence can be measured on a relevant detector. CHO-hGLP1R-β-arrestin cells stably overexpressing hGLP1R with Prolink tag and β-arrestin with EA tag were seeded at 20 μL per well in white 384-well poly-D-Lysine coated plates (Greiner Bio One, cat #781945) in Plating Reagent 2 (DiscoverX, cat #93-0563R^2A), and incubated overnight at 37° C., 5% CO2 with humidity. The following day, agonists were prepared at 5 times the final required concentration. To generate triplicate dose response curves, compounds were serially diluted 3-fold in assay buffer (HBSS, 10 mM Hepes and 0.1% BSA), then added to the cell assay plate to a final volume of 25 μL and final top concentrations starting at 30 μM. In the same plate and assay buffer as the tested compounds, were EC100 control wells containing GLP1 (7-36) peptide (Bachem, cat #H-6795) at a final concentration of 1 μM and also EC0 control wells containing no compound. The plate was incubated at 37° C., 5% CO2 with humidity for 2 h after adding the compounds to the cells. Then the detection reagent was prepared (19 parts cell assay buffer, 5 parts substrate reagent 1 and 1 part substrate reagent 2 as per manufacturers recommendations, DiscoverX cat #93-0001), and 12 μL were added per well to the cell assay plate. The plate was incubated for an additional hour in the dark at RT. Luminescence was then measured with an Envision 2104 Multilabel reader with “TRF Light Unit, 337 nm” (Perkin Elmer) using the Ultra-Sensitive protocol setting “384-well US luminescence detector” with the 384-well luminescence aperture, 0.1 sec per well. β-arrestin recruitment was calculated and expressed as percent of the GLP1 (7-36) EC100 control wells: [(sample signal−mean EC0 signal)/(mean EC100 of GLP1 (7-36) signal−mean EC0 signal)]*100 using Microsoft Excel. Curve fitting for EC50 determinations was performed using GraphPad Prism. The 4-parameter logistic model, Hill slope was used: Y=Bottom+(Top−Bottom)/(1+10^((Log EC50−X)*Hill Slope)), where Y is the functional response; X is the compound concentration; bottom is A0 or the minimum value (at 0 dose); top is Ainf or the maximum value (at infinite dose); EC50 is the point of inflection (i.e. the point on the sigmoid shaped curve halfway between A0 and Ainf). The EC50 value was calculated in μM. Emax is the maximal activity detected within the concentration range, derived from the fitted curve relative to GLP1(7-36).
PathHunter CHO-K1-EA parental cells (DiscoverX, cat #93-0164) were plated at a density of 2×10^6 cells per T75 cm^2 flask in 22 mL of complete medium (AssayComplete Cell Culture kit 107, DiscoverX, cat #92-3107G). The following day, the medium was replaced with 22 mL of fresh medium with no antibiotics and cells were transfected as follows. […]

Sequence of human GLP1R (hGLP1R) (P43220 24-463): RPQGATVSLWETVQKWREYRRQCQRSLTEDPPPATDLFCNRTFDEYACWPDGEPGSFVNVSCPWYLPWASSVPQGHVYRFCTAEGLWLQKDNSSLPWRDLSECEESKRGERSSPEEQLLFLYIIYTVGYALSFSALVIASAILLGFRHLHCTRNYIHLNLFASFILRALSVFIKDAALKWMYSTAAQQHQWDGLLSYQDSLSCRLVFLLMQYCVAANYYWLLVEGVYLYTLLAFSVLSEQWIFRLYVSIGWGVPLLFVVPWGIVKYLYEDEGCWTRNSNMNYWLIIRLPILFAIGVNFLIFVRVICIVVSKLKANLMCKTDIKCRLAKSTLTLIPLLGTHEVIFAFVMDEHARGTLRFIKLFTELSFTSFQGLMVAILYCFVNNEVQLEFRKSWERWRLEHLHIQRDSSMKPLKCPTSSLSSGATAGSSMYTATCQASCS

Take `Cc1nc(CN2CCC(c3cccc4c3O[C@@](C)(c3ccc(Cl)cc3F)O4)CC2)n(C[C@@H]2CCO2)c1-c1cc(C(=O)O)n(C)n1` [Compound C-21, 3-(2-((4-((S)-2-(4-chloro-2-fluorophenyl)-2-methylbenzo[d][1,3]dioxol-4-yl)piperidin-1-yl)methyl)-4-methyl-1-(((S)-oxetan-2-yl)methyl)-1H-imidazol-5-yl)-1-methyl-1H-pyrazole-5-carboxylic acid]: the EC50 was > 30 µM and the Emax was determined as 0%.

On to `Cc1c(-c2ccc(C(=O)O)o2)nc(CN2CCC(c3cccc4c3O[C@@](C)(c3ccc(Cl)cc3F)O4)CC2)n1C[C@@H]1CCO1` [Compound C-24, 5-(2-((4-((S)-2-(4-chloro-2-fluorophenyl)-2-methylbenzo[d][1,3]dioxol-4-yl)piperidin-1-yl)methyl)-5-methyl-1-(((S)-oxetan-2-yl)methyl)-1H-imidazol-4-yl)furan-2-carboxylic acid], for which the EC50 was > 30 µM and the Emax amounted to 1%.

By EC50 is commonly meant the concentration that produces a half-maximal response. In general, Emax refers to the greatest response seen or fitted, relative to the assay's reference.
